Assay results reported in ChEMBL document CHEMBL3046246, “Synthesis of spirothiohydantoin analogues of hydantocidin” (1995).

Columns and labels:
Format in all cases: functional
Conditions in all cases: 240 h, read-out: GI
[1] = tested on: Digitaria sanguinalis; experiment: Herbicidal activity against three-leaf stage Digitaria sanguinalis (hairy crabgrass) assessed as plant growth inhibition at 1000 ppm applied through foliar spraying measured after 10 days post compound treatment relative to untreated control
[2] = tested on: Sorghum halepense; experiment: Herbicidal activity against three-leaf stage Sorghum halepense (Johnson grass) assessed as plant growth inhibition at 1000 ppm applied through foliar spraying measured after 10 days post compound treatment relative to untreated control
[3] = tested on: Solanum nigrum; experiment: Herbicidal activity against three-leaf stage Solanum nigrum (black nightshade) assessed as plant growth inhibition at 1000 ppm applied through foliar spraying measured after 10 days post compound treatment relative to untreated control
[4] = tested on: Setaria viridis; experiment: Herbicidal activity against three-leaf stage Setaria viridis (green foxtail) assessed as plant growth inhibition at 1000 ppm applied through foliar spraying measured after 10 days post compound treatment relative to untreated control
[5] = tested on: Echinochloa crus-galli; experiment: Herbicidal activity against three-leaf stage Echinochloa crus-galli (barnyard grass) assessed as plant growth inhibition at 1000 ppm applied through foliar spraying measured after 10 days post compound treatment relative to untreated control
[6] = tested on: Ambrosia artemisiifolia; experiment: Herbicidal activity against three-leaf stage Ambrosia artemisiifolia (ragweed) assessed as plant growth inhibition at 1000 ppm applied through foliar spraying measured after 10 days post compound treatment relative to untreated control
[7] = tested on: Ipomoea purpurea; experiment: Herbicidal activity against 3-leaf stage tall Ipomoea purpurea (common morning-glory) assessed as plant growth inhibition at 1000 ppm applied through foliar spraying measured after 10 days post compound treatment relative to untreated control
[8] = tested on: Panicum dichotomiflorum; experiment: Herbicidal activity against three-leaf stage Panicum dichotomiflorum assessed as plant growth inhibition at 1000 ppm applied through foliar spraying measured after 10 days post compound treatment relative to untreated control
[9] = tested on: Xanthium strumarium; experiment: Herbicidal activity against three-leaf stage Xanthium strumarium (cocklebur) assessed as plant growth inhibition at 1000 ppm applied through foliar spraying measured after 10 days post compound treatment relative to untreated control
[10] = tested on: Abutilon theophrasti; experiment: Herbicidal activity against three-leaf stage Abutilon theophrasti (velvetleaf) assessed as plant growth inhibition at 1000 ppm applied through foliar spraying measured after 10 days post compound treatment relative to untreated control

Row | SMILES | inhibition of growth at 1000 ppm [1] | inhibition of growth at 1000 ppm [2] | inhibition of growth at 1000 ppm [3] | inhibition of growth at 1000 ppm [4] | inhibition of growth at 1000 ppm [5] | inhibition of growth at 1000 ppm [6] | inhibition of growth at 1000 ppm [7] | inhibition of growth at 1000 ppm [8] | inhibition of growth at 1000 ppm [9] | inhibition of growth at 1000 ppm [10]
1 | O=C1NC(=O)[C@@]2(N1)O[C@H](CO)[C@@H](O)[C@H]2O [HYDANTOCIDIN] | 95% | 95% | 95% | 95% | 95% | 95% | 95% | 95% | 95% | 95%
2 | O=C1NC(=O)[C@]2(N1)O[C@H](CO)[C@@H](O)[C@H]2O [HYDANTOCIDIN] | 80% | 0% | 50% | 80% | 10% | – | 30% | 80% | 80% | 80%
3 | O=C1NC(=S)N[C@@]12O[C@H](CO)[C@@H](O)[C@H]2O | 95% | 95% | 95% | 95% | 95% | 95% | 95% | 80% | 95% | 95%
4 | O=C1NC(=S)N[C@]12O[C@H](CO)[C@@H](O)[C@H]2O | 95% | 95% | 80% | 95% | 95% | 80% | 80% | 80% | 95% | 80%
